Assay results as given in patent publication US6613317B1, “Volatile attractants for diabrotica species” (priority 1988, dated 2003).

Columns and labels:
NCR [1] = test: Attraction to baited traps relative to controls (summary); format: in vivo, Diabrotica barberi; settings: summary statement
Excerpt: 4-Methylphenylethanol, 4-chlorophenylethanol, 4-fluorophenylethanol, phenylethanol, phenylpropanol, 4-methoxyphenylethanol, 3-methoxyphenylethanol, 2-methoxyphenylethanol, 4-methoxyphenylpropanol, phenylethylamine, and phenylpropylamine attract NCR at rates approximately 5-50 times controls.

[2] = test system: western corn rootworm (WCR); test: Sticky trap attraction in corn, phenylethanol analogues (Example 6); format: in vivo, Diabrotica virgifera virgifera; settings: Table 16; 100 mg per trap; four replicates; 24 hour
Method: Test chemicals (purchased from Aldrich Chemical Co.; Milwaukee, Wis.) were applied by capillary micropipettes to cotton dental wicks that were attached to tops of 1.0 liter cylindrical paper cartons covered with TangleTrap™, Grand Rapids, Mich. The trapping techniques used were as previously described in Example 1. Unless otherwise indicated, all treatments were made at a dosage of 100 mg or 100 μL of attractant per trap. Control traps had untreated wicks. Four replicates of treated and untreated traps were positioned randomly 10 meters apart on top of 1 m high posts along the edges of 25-50 ha. fields of hybrid corn (Zea mays), infested with adult NCR, SCR, and WCR beetles. Several experiments detailed in the Tables were made in a 0.4 ha plot of sweet corn (Illini X-tra Sweet).
Attraction of Diabrotica species adults of the sticky traps was measured by the mean number of beetles caught after 1 day (ca. 24 hours) exposure. The significance of the treatments was determined by analysis of variance and the individual means were separated by Duncan's multiple range test (Statistical Package for the Social Sciences, Nie, et al., 2nd. ed. McGraw-Hill, New York (1975). The data was logarithmically transformed for statistical analysis. Means and standard deviations are presented for the untransformed data. Significance levels were set at P=0.05 for all statistical analyses.

NCR [3] = test: Limit of response rating of squash blossom volatiles on sticky traps (Example 5); format: in vivo, Diabrotica barberi; settings: 24 hour; four replicate traps; 0.01 mg to 200 mg
Method in brief: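 Adult Diabrotica beetles were tested against cylindrical sticky traps baited with cotton wicks holding 0.01 mg to 200 mg of individual Cucurbita maxima blossom volatiles. Response limit rated by trap catch.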

[4] = test system: southern corn rootworm (SCR) adults; test: Sticky trap attraction in sweet corn plots (Example 1); format: in vivo, Diabrotica undecimpunctata howardi; settings: August first year, single compounds 100 mg per trap
Method in brief: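 Field trapping in sweet-corn plots beside a Blue Hubbard squash trap crop; lures on mineral-oil-impregnated cotton wicks atop sticky paper-carton traps on 1-m posts, 4 replicates in randomized complete blocks. Beetles counted after 24 h; VIPAE/VIP/TIC mixtures and single components at 1–300 mg per trap, ANOVA/Duncan at P=0.05.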

NCR [5] = settings: in vivo; cited from earlier work

Structure (SMILES): OCC=Cc1ccccc1 [XVIII, cinnamyl alcohol]
- rate of attraction of NCR relative to controls (NCR [1]): 5-20 times
- Mean number of WCR per trap (±standard deviation) [2]: 4.0 ± 1.6a per trap
- Attractant Rating NCR (by limit of response) (NCR [3]): +3 (3-10)

Structure (SMILES): C=CCc1ccc(O)c(OC)c1 [XXIV, eugenol]
- Mean number of SCR per trap (±standard deviation) ([4]; South Farms, 24 h, mixture 20 mg of each component, n = 4): 2.8 ± 2.8 per trap
- relative percent activity of the mean SCR trap catch as compared with the highest mean value in the column ([4]; mixture 20 mg each component): 13%
- LR for NCR, most effective volatile attractant yet identified (NCR [5]): 10 mg
